Laboratory results taken from patent US12351580B2, “NLRP3 modulators” (Innate Tumor Immunity, Inc., priority 2017, dated 2025).
pEC50: −log10 of the molar value.

Legend:
TLR8 = molecular target: T1, TLR8 (Homo sapiens, UniProt Q9NR97); assay: In vitro human TLR8 binding reporter assay (HEK-Blue, NF-kB/AP1-inducible SEAP); assay type: cell-based; conditions: activity range symbols
T1 construct: host or cells: HEK-Blue cells (human HEK) co-expressing TLR8 and an NF-kB/AP1-inducible SEAP reporter
T1 sequence (Q9NR97 27-1041): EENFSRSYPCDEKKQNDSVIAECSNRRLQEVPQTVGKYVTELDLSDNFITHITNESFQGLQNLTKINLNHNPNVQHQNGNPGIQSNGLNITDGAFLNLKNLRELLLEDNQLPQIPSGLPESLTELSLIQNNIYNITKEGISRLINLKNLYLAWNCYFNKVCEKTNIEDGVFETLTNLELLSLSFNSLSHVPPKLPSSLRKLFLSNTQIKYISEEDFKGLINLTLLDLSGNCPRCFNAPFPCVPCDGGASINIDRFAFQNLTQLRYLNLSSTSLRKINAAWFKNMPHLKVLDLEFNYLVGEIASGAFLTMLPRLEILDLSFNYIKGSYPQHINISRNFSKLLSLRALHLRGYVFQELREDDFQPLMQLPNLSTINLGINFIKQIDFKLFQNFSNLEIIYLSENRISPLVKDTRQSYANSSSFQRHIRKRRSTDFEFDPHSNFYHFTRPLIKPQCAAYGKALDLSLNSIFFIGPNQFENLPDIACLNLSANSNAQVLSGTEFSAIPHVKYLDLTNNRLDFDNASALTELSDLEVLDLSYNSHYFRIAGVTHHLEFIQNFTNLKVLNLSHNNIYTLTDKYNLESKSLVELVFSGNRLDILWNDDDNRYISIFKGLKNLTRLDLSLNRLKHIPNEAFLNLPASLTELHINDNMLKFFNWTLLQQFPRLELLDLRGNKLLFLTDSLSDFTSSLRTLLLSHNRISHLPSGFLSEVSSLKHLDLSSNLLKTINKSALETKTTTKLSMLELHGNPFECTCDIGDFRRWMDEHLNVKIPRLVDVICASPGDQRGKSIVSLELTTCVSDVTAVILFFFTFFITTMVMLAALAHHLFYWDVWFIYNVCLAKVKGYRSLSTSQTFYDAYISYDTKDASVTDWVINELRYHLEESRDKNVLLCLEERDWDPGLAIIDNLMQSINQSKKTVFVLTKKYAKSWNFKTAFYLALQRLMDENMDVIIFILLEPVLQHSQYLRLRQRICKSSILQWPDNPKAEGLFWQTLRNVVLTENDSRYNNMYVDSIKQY
How it was run: (§1)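 Reporter cells are plated at 15,000 per well and rested 24 h. Next day, test compounds or DMSO are dispensed, followed by 18 h incubation at 37 °C, 5% CO2.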

TLR7 = molecular target: T2, TLR7 (Homo sapiens, UniProt Q9NYK1); assay: In vitro human TLR7 binding reporter assay (HEK-Blue, NF-kB/AP1-inducible SEAP); assay type: cell-based; conditions: activity range symbols
T2 construct: host or cells: HEK-Blue cells (human HEK) co-expressing TLR7 and an NF-kB/AP1-inducible SEAP reporter
T2 sequence (Q9NYK1 27-1049): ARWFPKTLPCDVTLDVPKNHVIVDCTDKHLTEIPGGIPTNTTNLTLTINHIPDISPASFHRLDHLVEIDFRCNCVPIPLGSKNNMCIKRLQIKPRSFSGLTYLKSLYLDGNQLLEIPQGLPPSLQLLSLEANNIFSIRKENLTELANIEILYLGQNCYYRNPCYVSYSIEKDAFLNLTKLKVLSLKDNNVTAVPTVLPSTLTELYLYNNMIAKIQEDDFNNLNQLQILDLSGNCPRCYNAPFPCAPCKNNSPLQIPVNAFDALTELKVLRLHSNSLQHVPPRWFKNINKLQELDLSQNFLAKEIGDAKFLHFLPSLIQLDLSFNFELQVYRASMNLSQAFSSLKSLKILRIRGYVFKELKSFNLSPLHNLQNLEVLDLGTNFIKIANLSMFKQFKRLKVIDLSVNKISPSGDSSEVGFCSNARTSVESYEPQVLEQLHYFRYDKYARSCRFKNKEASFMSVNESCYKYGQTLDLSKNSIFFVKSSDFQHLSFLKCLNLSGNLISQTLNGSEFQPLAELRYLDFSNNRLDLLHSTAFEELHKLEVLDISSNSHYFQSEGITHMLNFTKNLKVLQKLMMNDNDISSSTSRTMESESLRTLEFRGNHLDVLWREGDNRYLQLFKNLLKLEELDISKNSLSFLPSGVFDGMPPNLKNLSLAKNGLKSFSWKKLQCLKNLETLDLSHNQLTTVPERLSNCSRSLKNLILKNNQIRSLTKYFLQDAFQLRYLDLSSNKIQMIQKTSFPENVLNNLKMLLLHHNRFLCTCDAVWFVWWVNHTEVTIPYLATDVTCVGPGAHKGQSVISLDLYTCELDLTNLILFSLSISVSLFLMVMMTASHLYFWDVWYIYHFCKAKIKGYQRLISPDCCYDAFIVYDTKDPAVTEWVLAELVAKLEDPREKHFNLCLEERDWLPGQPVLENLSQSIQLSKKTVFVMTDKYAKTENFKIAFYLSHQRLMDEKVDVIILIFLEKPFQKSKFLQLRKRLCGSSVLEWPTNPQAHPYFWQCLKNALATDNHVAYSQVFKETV
How it was run: as §1

pEC50 (TLR8) | pEC50 (TLR7) | Structure (SMILES)
< 4.00 | < 4.00 | Cc1cccc(-c2ccc3c(c2)nc(N)c2nc(CN4CCCC4=O)[nH]c23)c1 [Compound 286, 1-[[4-amino-7-(3-methylphenyl)-1H-imidazo[4,5-c]quinolin-2-yl]methyl]pyrrolidin-2-one]
< 4.00 | < 4.00 | Nc1nc2cc(-c3cccc(F)c3)ccc2c2[nH]c(CN3CCCC3=O)nc12 [Compound 289, 1-[[4-amino-7-(3-fluorophenyl)-1H-imidazo[4,5-c]quinolin-2-yl]methyl]pyrrolidin-2-one]
< 4.00 | < 4.00 | Cc1ccc(-c2ccc3c(c2)nc(N)c2nc(CN4CCCC4=O)[nH]c23)cc1 [Compound 291, 1-[[4-amino-7-(4-methylphenyl)-1H-imidazo[4,5-c]quinolin-2-yl]methyl]pyrrolidin-2-one]
< 4.00 | 4.00 to 4.70 | Nc1nc2cc(Br)ccc2c2[nH]c(CN3CCCC3=O)nc12 [Compound 294, 1-[(4-amino-7-bromo-1H-imidazo[4,5-c]quinolin-2-yl)methyl]pyrrolidin-2-one]
< 4.00 | < 4.00 | Cc1ccn(-c2ccc3c(c2)nc(N)c2nc(CN4CCCC4=O)[nH]c23)n1 [Compound 301, 1-[[4-amino-7-(3-methylpyrazol-1-yl)-1H-imidazo[4,5-c]quinolin-2-yl]methyl]pyrrolidin-2-one]

Further lines, the molecule ahead of its results:

Structure (SMILES) | pEC50 (TLR8) | pEC50 (TLR7)
Nc1nc2cc(-c3ccccc3F)ccc2c2[nH]c(CN3CCCC3=O)nc12 [Compound 284, 1-[[4-amino-7-(2-fluorophenyl)-1H-imidazo[4,5-c]quinolin-2-yl]methyl]pyrrolidin-2-one] | < 4.00 | < 4.00
Nc1nc2cc(-c3cccc(Cl)c3)ccc2c2[nH]c(CN3CCCC3=O)nc12 [Compound 285, 1-[[4-amino-7-(3-chlorophenyl)-1H-imidazo[4,5-c]quinolin-2-yl]methyl]pyrrolidin-2-one] | < 4.00 | < 4.00
COc1cccc(-c2ccc3c(c2)nc(N)c2nc(CN4CCCC4=O)[nH]c23)c1 [Compound 287, 1-[[4-amino-7-(3-methoxyphenyl)-1H-imidazo[4,5-c]quinolin-2-yl]methyl]pyrrolidin-2-one] | < 4.00 | < 4.00
N#Cc1cccc(-c2ccc3c(c2)nc(N)c2nc(CN4CCCC4=O)[nH]c23)c1 [Compound 288, 3-[4-amino-2-[(2-oxopyrrolidin-l-yl)methyl]-1H-imidazo[4,5-c]quinolin-7-yl]benzonitrile] | < 4.00 | < 4.00
Nc1nc2cc(-n3cccn3)ccc2c2[nH]c(CN3CCCC3=O)nc12 [Compound 295, 1-[(4-amino-7-pyrazol-1-yl-1H-imidazo[4,5-c]quinolin-2-yl)methyl]pyrrolidin-2-one] | < 4.00 | < 4.00
Cc1cnn(-c2ccc3c(c2)nc(N)c2nc(CN4CCCC4=O)[nH]c23)c1 [Compound 296, 1-[[4-amino-7-(4-methylpyrazol-1-yl)-1H-imidazo[4,5-c]quinolin-2-yl]methyl]pyrrolidin-2-one] | < 4.00 | < 4.00
Nc1nc2cc(C3CCOCC3)ccc2c2[nH]c(CN3CCCC3=O)nc12 [Compound 298, 1-[[4-amino-7-(oxan-4-yl)-1H-imidazo[4,5-c]quinolin-2-yl]methyl]pyrrolidin-2-one] | < 4.00 | 4.70 to 6.00
Nc1nc2cc(C3CCCCC3)ccc2c2[nH]c(CN3CCCC3=O)nc12 [Compound 302, 1-[(4-amino-7-cyclohexyl-1H-imidazo[4,5-c]quinolin-2-yl)methyl]pyrrolidin-2-one] | < 4.00 | < 4.00
CC(c1nc2c(N)nc3cc(Br)ccc3c2[nH]1)N1CCCC1=O (stereo not shown) [Compound 303, 1-[1-(4-amino-7-bromo-1H-imidazo[4,5-c]quinolin-2-yl)ethyl]pyrrolidin-2-one] | 4.00 to 4.70 | 4.00 to 4.70
